Legend:
[1] = Solubility of DMT fumarate at 10 mg/mL in aqueous vehicles (initial tests); assay type: physicochemical; settings: 10 mg/mL in water, saline, 20 mM phosphate buffer, and buffer combined with saline
Experimental: Solubility of DMT fumarate was assessed at a concentration of 10 mg/mL in a small selection of aqueous vehicles (water, saline, 20 mM phosphate buffer and a combination of buffer and saline).
Phosphate buffer (100 mL) was prepared using 219.53 mg of the dibasic form [HPO4][Na]2 with 183.7 mg of the monobasic form [H2PO4]Na, both dihydrate salts. The solution was adjusted to pH 7.0 with addition of NaOH (1 M) and then made to volume. 10 mL of a 10 mg/mL formulation was prepared.
To prepare this, sodium chloride was first dissolved in water to produce the saline solution (100 mL, 0.45% w/v). The phosphate salts, in the quantities described above, were then dissolved in the saline solution and the pH was adjusted using NaOH (1 M).
The pH of these solutions was in the range 3-4.

[2] = Solubility of DMT fumarate at different pH values (20 mg/mL, Britton-Robinson buffer)

With DMT fumarate [SPL026] the Solubility [1] was “readily soluble”, the “Solubility / appearance of solution” value ([2]; 20 mg/mL in B-R buffer at pH 4, 5, 6 and 7) was “clear and colourless” and the “Solubility / appearance of solution” value ([2]; 20 mg/mL in B-R buffer at pH 8) was “hazy”. The “Solubility / appearance of solution” value ([2]; 20 mg/mL in B-R buffer at pH 9 and pH 10) was “contained a precipitate” and the Solubility on dissolution ([2]; 20 mg/mL in Britton-Robinson buffer solution, before pH adjustment) was “very soluble”.

From US11406619B2, “Injectable formulations” (priority 2020, dated 2022)
